{
  "source": "patent US20250186503A1",
  "about": "“METHODS AND COMBINATIONS FOR TREATMENT AND T CELL MODULATION” (Juno Therapeutics, Inc., priority 2018, published 2025)",
  "key": {"anti-CD19 CAR T cells": {"test_system": "anti-CD19 CAR T cells", "assay": "RNA-seq of CAR T cells sorted from tumor spheroids, Compound 1 after chronic stimulation", "type": "cell-based, human", "settings": "0.1 μM and 1 μM after chronic stimulation", "experimental": "Gene expression analysis of CAR T cells sorted from tumor spheroids 5 days after co-culture was analyzed by RNA sequencing (RNA-seq) on the complementary DNA (cDNA) samples prepared from the RNA isolated from the long-term stimulated CAR-expressing T cells or on CAR-expressing T cells that had not undergone the long-term stimulation. […] Differential locus selection cut off was q<0.05 and absolute log 2 fold change>0.5 for RNA-seq."}, "[1]": {"test_system": "Raji and Granta-519 tumor cells", "assay": "CAR T function against Raji and Granta-519 tumor cells after concurrent treatment during chronic stimulation", "type": "cell-based, human", "parameters": "dose or concentration left out as unconfirmed"}, "phosphorylated STAT5": {"test_system": "phosphorylated STAT5", "assay": "Phosphorylated STAT5 in CAR T cells incubated with conditioned supernatants", "type": "cell-based, human", "settings": "both concentrations used", "experimental": "Conditioned supernatants from stimulated CAR T cultures were harvested after overnight treatment and incubated with freshly thawed CAR T cells from three donors alone or in the presence of a blocking IL-2 antibody. After short term stimulation, CAR T cells were then assessed by flow cytometry for phosphorylated STAT5."}, "[2]": {"test_system": "K562.CD19, Raji cells or Granta-519 cells", "assay": "Cytolytic activity against CD19+ tumor cells, rescue with Compound 2 after chronic stimulation", "type": "cell-based, human", "settings": "0.001 μM or 0.01 μM during rechallenge; E:T 1:1", "experimental": "Long-term, chronic stimulation was carried out by stimulation of CAR T cells with 30 μg/mL plate-bound anti-idiotypic (anti-ID) antibody for 6 days, substantially as described in Example 22.\nThe assessed CD19+tumor cells included K562 cells transduced with CD19 (K562.CD19), Raji cells or Granta-519 cells."}, "RPMI-8226 [3]": {"test_system": "RPMI-8226", "assay": "7-day prestimulation of anti-BCMA CAR-T cells on BCMA beads, phenotype and re-challenge with RPMI-8226", "type": "cell-based, human", "experimental": "Expression of CD25, PD-1, Tim3 and Lag3 on CAR T cells (using an antibody for surrogate CAR marker) cultured under the different conditions then was assessed by flow cytometry.\nPercentage killing was normalized to anti-BCMA CAR T cells prestimulated on beads in the presence of vehicle. Cytokine production was assessed by ELISA from supernatant following culture with target cells for 24 hours. Experiments were performed twice in 3 donors. […] P values were obtained by likelihood ratio tests comparing the full model with the effect of interest against the model without the effect of interest."}, "OPM-2 [4]": {"test_system": "OPM-2", "settings": "read-out: sensitivity to lenalidomide; cited from earlier work"}, "RPMI-8226 [5]": {"test_system": "RPMI-8226", "assay": "3D myeloma model (reconstructed bone marrow embedded with RPMI-8226)", "type": "cell-based, human", "settings": "1.0 μM", "from_the_text": "To assess cell function in the context of a three-dimensional (3-D) human BCMA-expressing tissue microenvironment, a reconstructed bone marrow (rBone™) (z[…], San Jose, CA) was embedded with BCMA-expressing RPMI-8226.\nAfter 2 or 7 days, cells were isolated and assessed by flow cytometry for surface expression of CD3, CD25, CD4, and CD8."}, "OPM-2 [6]": {"test_system": "OPM-2", "assay": "OPM-2 human multiple myeloma orthotopic mouse model, Study 2", "type": "in vivo", "experimental": "In a further study, NOD/Scid/gc^−/− (NSG) mice were injected (i.v.) with OPM-2-luciferase cells as described in Study 1 above and allowed to engraft for 14 days prior to CAR-T (or mock) cell; infusion (i.v.).\nAt 14 days after tumor cell injection (day 0), a subtherapeutic dose of CAR+ T cells (1×10^6 CAR-T cells (generated from two different donors)) or mock control cells was injected intravenously. Data are presented as mean±SEM. For in vivo survival, a Gehan-Breslow-Wilcoxon test was used to compare groups.\nFIG. 10E depicts the results of tumor burden assessment through day 60, as analyzed by the bioluminescence […]. […] P values were obtained by likelihood ratio tests comparing the full model with the effect of interest against the model without the effect of interest.\nBlood from the treated mice was collected for CAR-T pharmacokinetic analysis, and cells were stained with antibodies to exclude mouse-specific cells (H2-kd, TER119, and muCD45) and analyzed by flow cytometry. Cells were gated on CD45+CD3+ CAR+ and the cells per microliter of blood was determined. For pharmacokinetic measurements, each time point was analyzed by one-way ANOVA and Tukey post-hoc test. FIGS. 10G and 10H show the flow cytometric analysis of mock control cells and CAR-T cells in the blood of the mice at days 8, 14, 22, and 28 following injection of the CAR-T cells from two donors."}, "RPMI-8226 [7]": {"test_system": "RPMI-8226", "assay": "Cytokine production of anti-BCMA CAR T cells incubated with RPMI-8226 target cells", "type": "cell-based, human", "from_the_text": "Culture of T cells not expressing the anti-BCMA CAR (mock) was used as a control."}, "[8]": {"settings": "concurrent lenalidomide (from day −1), vs vehicle with anti-BCMA CAR T alone"}},
  "data": [
    {"smiles": "Cc1nc2cccc(N)c2c(=O)n1C1CCC(=O)NC1=O", "note": "(stereo not drawn) [Compound 1, 3-(5-amino-2-methyl-4-oxo-4H-quinazolin-3-yl)-piperidine-2,6-dione]", "values": [
      {"measurement": "expression of genes associated with a hypofunctional, exhausted state", "setting": "anti-CD19 CAR T cells", "value": "partial reversal of expressed genes"},
      {"measurement": "cytolytic activity (tumor cell number over time)", "setting": "[1]; 0. and Compound 1 concurrent, 2.5:1 E:T", "value": "improved"},
      {"measurement": "IFN-γ and TNF-α production", "setting": "[1]; 24 hours, both cell lines", "value": "increased relative to vehicle control"},
      {"measurement": "median fluorescence intensity of phosphorylated STAT5 (pSTAT5)", "setting": "phosphorylated STAT5", "value": "increased"}
    ]},
    {"smiles": "O=C1CC[C@H](N2Cc3c(OCc4ccc(CN5CCOCC5)cc4)cccc3C2=O)C(=O)N1", "note": "[Compound 2, (S)-3-[4-(4-morpholin-4-ylmethyl-benzyloxy)-1-oxo-1,3-dihydro-isoindol-2-yl]-piperidine-2,6-dione]", "values": [
      {"measurement": "cytolytic activity (tumor cell number over time)", "setting": "[2]", "value": "statistically significant improvement in cytolytic activity"}
    ]},
    {"smiles": "Nc1cccc2c1CN(C1CCC(=O)NC1=O)C2=O", "note": "(stereo not drawn) [lenalidomide, 3-(4-amino-1-oxo-1,3-dihydro-2H-isoindol-2-yl)piperidine-2,6-dione]", "values": [
      {"measurement": "percentage of PD-1+ cells in the CD4+ population", "setting": "RPMI-8226 [3]; 1 μM", "value": "decrease"},
      {"measurement": "cytolytic function of prestimulated CAR-T cells", "setting": "RPMI-8226 [3]; 1 μM during the prestimulation period", "value": "preserved"},
      {"measurement": "cytokine production of prestimulated CAR-T cells", "setting": "RPMI-8226 [3]; 1 μM during the prestimulation period, vs vehicle", "value": "trend toward increased cytokine production"},
      {"measurement": "total cell count", "setting": "RPMI-8226 [3]; 1 μM, 7 days on BCMA beads", "value": "did not alter"},
      {"measurement": "CAR+ viability", "setting": "RPMI-8226 [3]; 1 μM, 7 days on BCMA beads, 3 healthy donors", "value": "significantly increased"},
      {"measurement": "percentage positive for Lag3 expression", "setting": "RPMI-8226 [3]; 1 μM, CD4+ and CD8+ CAR+ populations", "value": "increased"},
      {"measurement": "CD25 in CD4+ and CD8+ CAR+ populations", "setting": "RPMI-8226 [3]; 1 μM, all donors", "value": "increased"},
      {"measurement": "PD-1 expression of BCMA-CAR-T cells", "setting": "RPMI-8226 [3]; 1 μM, prolonged stimulation", "value": "reduced"},
      {"measurement": "surface expression of Tim3 in the CD8+ population", "setting": "RPMI-8226 [3]; 1 μM, three donors", "value": "increased"},
      {"measurement": "IC50", "setting": "OPM-2 [4]", "value": 37.4, "unit": "µM"},
      {"measurement": "CD25+ expression in CD4+ and CD8+ T cell populations", "setting": "RPMI-8226 [5]", "value": "increase"},
      {"measurement": "total number of CD3+ cells at day 7", "setting": "RPMI-8226 [5]; cultures with anti-BCMA CAR+ T cells", "value": "increase"},
      {"measurement": "tumor growth and tumor burden in mice administered CAR+ T cells", "setting": "OPM-2 [6]; 10 mg/kg i.p. daily, 1×10^6 CAR-T cells, both donors, through day 60", "value": "slower tumor growth and reduced tumor burden"},
      {"measurement": "survival, donor 1 and donor 2", "setting": "OPM-2 [6]; [8]", "value": "increased survival"},
      {"measurement": "tumor burden, donor 1", "setting": "OPM-2 [6]; [8]", "value": "significant decrease"},
      {"measurement": "CAR T counts in the peripheral blood after 7 days", "setting": "OPM-2 [6]; concurrent lenalidomide dosing regimen, not at later time points", "value": "increased"},
      {"measurement": "mock CAR T effect on tumor burden, donor 1", "setting": "OPM-2 [6]; lenalidomide with mock cells", "value": "small, but significant"},
      {"measurement": "IL-2, IFNγ and TNF-α in culture supernatants", "setting": "RPMI-8226 [7]; 10 μM, E:T 0.3:1, 48 hours", "value": "increase"},
      {"measurement": "cytokine production in RPMI-8226 co-culture", "setting": "RPMI-8226 [7]; all donors and cytokines", "value": "significantly increased"}
    ]}
  ]
}
